The record followed here is PubChem BioAssay (NCI).

Several values for one entry are separate records, joined by “and”; a condition that tells them apart may be missing. Equal values may be shown once.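 Following 48 hours of exposure in 96-well plates, responses at five concentrations were used to interpolate endpoints linearly. GI50 marks 50% less growth. At the TGI there is no net growth.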 Bounds are passed on as bounds.

Test in all cases: NCI anticancer screen, dose series, 48 h
Test [1] relates to MDA-N.
Test [2] deals with DMS 114 small cell lung.
The subject of test [3] is DMS 273 small cell lung.
Test [4] relates to HOP-18 NSCLC.
For test [5], the system named is KM20L2 colon.
Test [6] concerns LXFL 529 NSCLC.
The subject of test [7] is RXF-631 renal.
The test system of test [8] is SNB-78 CNS.
The subject of test [9] is XF 498 CNS.
The test system of test [10] is SN12K1 renal.

In turn, `O=CCC1CCCCC1` showed a TGI in [1] of over 100 µM.
For the compound `N#CN/C(N)=N/CO`, the TGI in [2] was over 60.9 µM; in test [3], over 100 µM; in test [4], over 100 µM; in [5], over 100 µM; in test [6] it was over 100 µM; in test [7], over 100 µM. In addition, the TGI in [8] and in [9] was over 100 µM throughout.
`CC1(C)S[C@@H]2[C@H](NC(=O)C3(N)CCCCC3)C(=O)N2[C@H]1C(=O)O`: the TGI in test [1] was over 100 µM.
In the case of `CSc1nc(=O)n(CCC#N)nc1SC`, the TGI in test [1] worked out at 51.4 µM.
Turning to `CC(=O)CCn1ncc(Cl)c(Cl)c1=O`, the TGI stood at 32 µM in test [3]; 30.5 µM in test [4]; 36.2 µM in test [5]; 27.3 µM in [6]; 43 µM in test [8]; 35.5 µM in [9].
`N=C(N)C1CN(CCc2c[nH]c3ccccc23)C(=O)NC1=O` (centres undefined) yielded a TGI in [1] of over 100 µM.
Regarding `CCC(=O)CC(=O)CCC(=O)Nc1cc(C)ccc1C`, the TGI in test [4], in [5], in test [6], in [8] and in test [9] was over 100 µM in each case.
`CCCCOC(=O)CNC(=O)OC/C=C/C#CC#C/C=C/COC(=O)NCC(=O)OCCCC`: the GI50 in test [2], in test [5], in test [6] and in [7] was over 100 µM each time. The TGI in [2] is over 100 µM; in test [4], over 10 µM; in [5], over 100 µM; in [6], over 100 µM; in test [7], over 100 µM; in test [8] it was over 10 µM. The compound also gave a TGI in [9] of over 10 µM.
Turning to `COC(=O)C[C@](O)(CCCC(C)(C)O)C(=O)O[C@@H]1C(OC)=C[C@]23CCCN2CCc2cc4c(cc2[C@H]13)OCO4`, the TGI is 0.0162 µM in test [2]; under 0.0204 µM in test [3]; 0.418 µM in test [4]; 0.338 µM in test [5]; over 25 µM in test [1]; 0.0481 µM in test [10]. For the same compound, the results for the TGI in test [8] and in test [9] were 0.285 µM and 0.0391 µM, respectively.
As for `O=C(CCN(C(=O)O)S(=O)(=O)c1ccc(NC(=O)c2ccccc2)cc1)Nc1ccccc1`, the TGI in test [2] was over 68.5 µM; in test [3] it was over 82.4 µM; in test [4], over 100 µM; in [5], over 100 µM; in test [6], over 100 µM; in test [7] it was over 100 µM. In addition, the TGI in test [8] and in [9] was over 100 µM in each case.
Take `Cc1ccc(S(=O)(=O)Nc2ccccc2C=O)cc1`: the TGI in [1] amounted to 42.9 µM.
In [1], `C/C=C/C(CC(O)(C(F)(F)F)C(F)(F)F)=N/NC(N)=S` showed a TGI of over 10 µM.
The same measure, in the same setting: in the case of `COc1cccc(C2CC(C)(O)Oc3cc4c(cc32)OCO4)c1O` (centres undefined) it was 10.4 µM; in that of `O=C(/C=C/c1ccccc1)CCC1C(=O)c2ccccc2C1=O`, over 100 µM.
For the compound `CC(C)NC(=O)OCc1c(COC(=O)NC(C)C)c(-c2cc[n+](COC(=O)C3CC3)cc2)n2c1CCC2`, in test [1], the TGI is over 100 µM.
For `CN(C)CCNC(=O)c1cccc2ccc(-c3ccc(O)cc3)nc12`, the TGI in test [2] is 10.8 µM and 7.31 µM; in test [3] it was 6.07 µM; in [4], 7.14 µM and 8.35 µM; in [5], 21.7 µM; in [1], 8.3 µM; in [10], 3.21 µM and 2.35 µM. The compound further showed a TGI in test [8] of 20.3 µM. Besides, the GI50 in [4] was 2.44 µM; in test [10] it was 0.383 µM.
In the case of `CC(C)C(CCl)NC(=O)c1cccc(C(=O)N[C@H](CCl)C(C)C)n1` (stereo in doubt), the TGI in test [2], in [3], in test [5], in test [6], in [7] and in [8] was over 100 µM in each case. Besides, in test [9], the TGI was over 100 µM.
With `NC(=S)N/N=C(\CC1OC(=O)c2ccccc21)c1ccc(Cl)cc1` (centres undefined), the TGI in test [2] is 75 µM; in test [3], over 100 µM; in [5] it was over 100 µM; in [6] it was over 100 µM; in [7], 74.1 µM; in test [8], over 100 µM. The compound further registered a TGI in test [9] of over 100 µM.
As for `N.N.N.N.O=C([O-])CCl.O=C([O-])CCl.[Co+3].[O-][Cl+3]([O-])([O-])[O-]`, the GI50 in [5], in test [6] and in [8] was over 100 µM each time. The TGI in [5], in test [6] and in test [8] was over 100 µM each time.
Consider `[N-]=[N+]=NC1(Cc2ccccc2)C(=O)c2cccc3c2N(CCC3)C1=O` (centres undefined), for which the TGI in test [2], in [3], in test [4] and in test [6] was over 100 µM each time.
For the compound `O=C(Nc1ccn(CCO)c(=O)n1)c1ccccc1`, the TGI in test [2], in test [3], in test [4], in [5], in [6] and in test [7] was over 100 µM throughout. This compound displayed a TGI in test [8] of over 100 µM.
`COC(=O)C1c2cc3c(cc2C(OC2OC(C)C(OC)C(C)(OC)C2OC)CC1(C)O)C(=O)c1c(O)cc2c(c1C3=O)OC1OC2(C)C(O)C([N+](C)(C)[O-])C1O` (centres undefined) registered a TGI in [1] of 1.03 µM.
The compound `CC1(C)CC(=O)C(C=NC(=S)c2ccccc2)=C(O)C1` returned a TGI in [1] of over 100 µM.
For `CC(C)C1=CC23CCC4C(C)(C(=O)O)CCCC4(C)C2CC1C1C(=O)N(c2ccc(Cc4ccc(N5C(=O)C6C7CC8C9(C)CCCC(C)(C(=O)O)C9CCC8(C=C7C(C)C)C6C5=O)cc4)cc2)C(=O)C13` (centres undefined), the TGI in test [1] worked out at 24.8 µM.
With `COc1cccc2c1C(=O)c1c(O)c3c(c(O)c1C2=O)C[C@@](O)(C(=O)CO)C[C@@H]3OC1CC(N)CC(C)O1` (some centres undefined), the GI50 was 0.0238 µM and 0.0476 µM in [2]; 0.0134 µM and 0.0303 µM in [3]; 0.0713 µM in test [4]; 0.0545 µM in test [5]; 0.0272 µM in [1]; 0.085 µM in test [8]. In addition, in [9], the GI50 was 0.0251 µM and 0.052 µM. Besides, the TGI in test [2] is 0.167 µM and 0.299 µM; in test [3], 0.202 µM and 0.129 µM; in test [4], 0.906 µM and 0.445 µM; in [5] it was 0.528 µM and 1.41 µM; in test [6], 0.951 µM; in test [1], 0.274 µM and 0.132 µM. Also, the TGI in [7] was 0.9 µM; in test [10], 0.0846 µM; in [8], 1.73 µM and 2.02 µM; in test [9], 0.144 µM and 0.101 µM.
`O=C1c2ccccc2C(=O)N1CCn1ccc(NC(c2ccccc2)(c2ccccc2)c2ccccc2)nc1=O`: the TGI was 50 µM in test [2]; 36.6 µM in test [3]; 42.6 µM in test [4]; 27.5 µM in test [5]; over 100 µM in test [6]; 40.4 µM in [7]. The figures for the TGI in test [8] and in test [9] were over 100 µM and 30.3 µM, respectively.
As to `COc1ccc2occ(CCC(=O)O)c2c1`, the TGI in test [2], in test [3], in [4], in [5], in [6] and in [8] was over 100 µM throughout. In addition, in test [9], the TGI was over 100 µM.
On to `CCOC(=O)c1cnc2c(ccc3[nH]n(C)nc32)c1=O`, for which the TGI in test [2] is over 100 µM; in test [3], 73.4 µM; in [4], over 100 µM; in test [5], over 100 µM; in test [6], over 100 µM; in [7], over 100 µM. Also, the TGI in test [8] was 38.6 µM; in [9], over 100 µM.
`CC1(C)COC(C2(C)C(=O)C=C(c3ccccc3)c3ccccc32)=N1` (centres undefined): the TGI in [2], in test [4], in test [5], in test [6] and in test [7] was over 100 µM throughout.
With `O=C1CCC(Cl)=CC2CCCN12` (centres undefined), the TGI in test [2], in [5], in test [6] and in [8] was over 100 µM in each case.
Regarding `CCN(CC)CCCN1CCc2c([nH]c3ccccc23)C1c1cccnc1` (centres undefined), the TGI in [2], in test [3], in test [5], in test [6], in [7] and in test [8] was over 100 µM each time. The compound further had a TGI in [9] of over 100 µM.
In turn, `CC(=O)N=C1N(/C=C2\C(=O)Oc3ccccc3C2=O)C(=O)/C(=C/c2cccc(Cl)c2Cl)N1C` had a TGI in [1] of over 100 µM.
In turn, `O=C(Nc1ccc2ncccc2c1)Nc1ccc2ncccc2c1` had a TGI in test [1] of over 100 µM.
With `CC(C)(C)NNC(=O)CCn1[nH]c(=O)c(Cl)c(Cl)c1=O`, the TGI in test [2], in test [3], in test [4], in test [5], in test [6] and in test [7] was over 100 µM throughout. In addition, the TGI in test [9] was over 100 µM.
In turn, `O=[N+]([O-])c1ccc2[nH]c(=S)[nH]c(=S)c2c1` displayed a TGI in test [1] of over 100 µM.
With `OC(CC1SCCCS1)c1ccccc1` (centres undefined), the TGI in test [2], in test [3], in test [4], in [5], in test [6] and in test [9] was over 100 µM in each case.
`Cc1ccc(S(=O)(=O)N(C=O)N=C2CCN(Cc3ccccc3)CC2)cc1`: the TGI in test [3], in test [4], in [5], in test [6], in test [7] and in [8] was over 100 µM in each case. Also, the TGI in test [9] is over 100 µM.
`CC1(C)C(C#N)C1C1=C(N2CCOCC2)[C@]2(C)C(OC(=O)c3ccccc3)CC[C@@H]2C1` (some centres undefined) yielded a TGI in [1] of over 100 µM.
Consider `Clc1ccc2c(c1)[nH]c1c2nc2ccccn21`, for which the GI50 was 41.9 µM in test [4]; 35.9 µM and 16.2 µM in test [6]; 35.9 µM and 16 µM in test [9]. In addition, the TGI in test [4] was over 100 µM; in test [5] it was 74.9 µM and 28.7 µM; in test [6], > 100 µM and 30 µM; in test [7], > 100 µM and 69.2 µM; in test [8], 83.9 µM and 61.6 µM; in test [9], 89.1 µM and 29.8 µM.
For `Nc1nc(Cl)cc(NCCCCCCCCNc2cc(Cl)nc(N)n2)n1`, the TGI is over 100 µM in test [3]; over 100 µM in test [4]; over 100 µM in [5]; 27.1 µM in [6]; over 100 µM in test [8]; 13.7 µM in test [9].
`O=[N+]([O-])c1cccc(C2=NN(c3ccccc3)C[N+](c3ccc(Br)cc3)=N2)c1`: the TGI in test [3], in [4], in test [5], in [6], in test [8] and in test [9] was over 100 µM in each case.
With `COc1ccc(C2SC(N)=Nc3c2c(C)nn3C(=O)c2ccncc2)cc1OC` (centres undefined), the TGI in [1] was over 10 µM.
On to `CN1CC(=O)N2Cc3ccccc3-n3cccc3C2C1` (centres undefined), for which the TGI in test [3] was over 100 µM; in test [4], 91.7 µM; in test [5], over 100 µM; in test [6] it was over 100 µM; in test [7], over 100 µM; in test [8], over 100 µM. In [9], this compound yielded a TGI of over 100 µM.
Turning to `Cc1cn2c(=O)c3ncn(C4OC(CO)C(O)C4O)c3n(C)c2n1` (centres undefined), the TGI in test [2], in [3], in test [4], in [5], in [6] and in test [7] was over 100 µM in each case. Further, the TGI in test [8] is over 100 µM.
